Experimental findings from patent publication US12522601B2, “1,3,4-oxadiazole derivative compounds as histone deacetylase 6 inhibitor, and the pharmaceutical composition comprising the same” (CHONG KUN DANG PHARMACEUTICAL CORP., priority 2020, dated 2026) are described below.

In general, IC50 refers to the midpoint of a concentration-inhibition curve.

In one assay the target is T1, human recombinant HDAC6 (Homo sapiens, UniProt Q9UBN7).
T1 construct: purchased Calbiochem Inc. 382180
T1 sequence (Q9UBN7 1-1215): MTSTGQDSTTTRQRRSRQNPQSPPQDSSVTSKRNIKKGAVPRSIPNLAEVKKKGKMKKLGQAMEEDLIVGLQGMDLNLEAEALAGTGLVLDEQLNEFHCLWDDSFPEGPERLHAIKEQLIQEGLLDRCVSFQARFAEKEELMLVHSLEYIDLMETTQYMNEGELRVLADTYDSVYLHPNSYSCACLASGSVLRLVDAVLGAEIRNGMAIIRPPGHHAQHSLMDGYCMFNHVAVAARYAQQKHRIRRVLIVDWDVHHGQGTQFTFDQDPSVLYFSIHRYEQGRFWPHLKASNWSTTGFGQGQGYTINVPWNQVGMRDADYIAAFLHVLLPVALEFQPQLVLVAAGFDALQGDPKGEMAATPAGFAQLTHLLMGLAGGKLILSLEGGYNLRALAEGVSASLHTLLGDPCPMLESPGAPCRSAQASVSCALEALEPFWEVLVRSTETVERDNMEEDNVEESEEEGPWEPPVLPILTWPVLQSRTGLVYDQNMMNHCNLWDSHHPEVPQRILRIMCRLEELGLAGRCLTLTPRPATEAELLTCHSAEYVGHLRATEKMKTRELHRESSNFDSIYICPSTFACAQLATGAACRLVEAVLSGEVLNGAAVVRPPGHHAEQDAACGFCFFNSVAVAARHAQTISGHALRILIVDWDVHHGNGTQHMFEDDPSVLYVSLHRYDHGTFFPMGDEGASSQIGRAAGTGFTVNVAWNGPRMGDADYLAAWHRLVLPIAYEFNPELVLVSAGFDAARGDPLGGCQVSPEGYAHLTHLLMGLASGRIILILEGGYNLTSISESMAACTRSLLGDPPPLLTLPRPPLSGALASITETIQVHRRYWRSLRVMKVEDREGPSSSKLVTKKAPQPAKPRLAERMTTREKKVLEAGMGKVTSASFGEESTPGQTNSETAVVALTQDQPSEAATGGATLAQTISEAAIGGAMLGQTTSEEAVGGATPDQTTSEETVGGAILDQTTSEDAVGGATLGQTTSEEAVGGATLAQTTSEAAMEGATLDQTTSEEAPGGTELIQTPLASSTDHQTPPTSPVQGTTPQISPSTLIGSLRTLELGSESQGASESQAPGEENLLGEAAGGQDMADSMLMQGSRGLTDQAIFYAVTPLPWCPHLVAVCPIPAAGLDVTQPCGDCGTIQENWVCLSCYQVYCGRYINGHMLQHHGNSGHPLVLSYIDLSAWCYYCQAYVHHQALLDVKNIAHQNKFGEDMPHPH
Nature of the assay: In vitro HDAC enzyme activity inhibition assay, HDAC6 (HDAC Fluorimetric Drug Discovery Kit). Format: biochemical. The conditions noted are these: for HDAC6 Selectivity (fold): HDAC6 versus HDAC1; for IC50: human recombinant HDAC6, same protocol as the HDAC1 test. A digest of the protocol: (§1)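 Both HDAC1 and HDAC6 (human recombinant, 0.3 μg) tested identically: 10 μM fluorogenic Fluor de Lys-SIRT1 substrate, reaction 60 min at 30° C, developer added for 30 min. IC50 calculated from Ex 360/Em 460 signal over 5-fold serial dilutions.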

The next assay addresses T2, human recombinant HDAC1 (Homo sapiens, UniProt Q13547).
T2 construct: purchased Enzo Life Sciences, Inc. BML-SE456
Nature of the assay: In vitro HDAC enzyme activity inhibition assay, HDAC1 (HDAC Fluorimetric Drug Discovery Kit). The class given is biochemical. To be noted: human recombinant HDAC1, Fluor de Lys-SIRT1 substrate 10 μM, 30° C. for 60 minutes. A digest of the protocol: as §1

T2 sequence (Q13547 whole entry): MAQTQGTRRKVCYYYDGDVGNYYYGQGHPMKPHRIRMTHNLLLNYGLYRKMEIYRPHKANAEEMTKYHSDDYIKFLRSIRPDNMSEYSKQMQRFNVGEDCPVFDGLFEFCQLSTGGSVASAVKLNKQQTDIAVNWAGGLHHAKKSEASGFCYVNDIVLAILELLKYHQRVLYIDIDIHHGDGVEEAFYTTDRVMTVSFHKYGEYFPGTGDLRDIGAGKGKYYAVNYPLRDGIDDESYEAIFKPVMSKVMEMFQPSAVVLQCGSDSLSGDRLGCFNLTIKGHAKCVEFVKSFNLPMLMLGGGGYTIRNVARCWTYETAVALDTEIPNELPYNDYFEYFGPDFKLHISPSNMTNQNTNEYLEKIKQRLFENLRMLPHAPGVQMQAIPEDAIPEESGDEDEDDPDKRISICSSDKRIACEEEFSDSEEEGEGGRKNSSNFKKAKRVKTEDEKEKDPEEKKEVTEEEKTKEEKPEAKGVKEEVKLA

As to `O=C(CO)N1CCC(C(=O)N(Cc2cn3ccc(-c4nnc(C(F)F)o4)cc3n2)c2ccccc2)CC1` [Compound 4124, N-((7-(5-(difluoromethyl)-1,3,4-oxadiazol-2-yl)imidazo[1,2-a]pyridin-2-yl)methyl)-1-(2-hydroxyacetyl)-N-phenylpiperidine-4-carboxamide], the “HDAC6 Selectivity (fold)” value on human recombinant HDAC6 is recorded as 147 fold. For the same compound, the IC50 at human recombinant HDAC6 is 341 nM; at human recombinant HDAC1, above 50000 nM.

As to `Fc1ccc(Cc2cn3ccc(-c4nnc(C(F)F)o4)cc3n2)c(F)c1` [Compound 3588, 2-(2-(2,4-difluorobenzyl)imidazo[1,2-a]pyridin-7-yl)-5-(difluoromethyl)-1,3,4-oxadiazole], the “HDAC6 Selectivity (fold)” value on human recombinant HDAC6 stood at 205 fold. In addition, the figures for the IC50 at human recombinant HDAC6 and on human recombinant HDAC1 were 244 nM and above 50000 nM, respectively.

Take `Fc1cccc(Cc2cn3ccc(-c4nnc(C(F)F)o4)cc3n2)c1` [Compound 3585, 2-(difluoromethyl)-5-(2-(3-fluorobenzyl)imidazo[1,2-a]pyridin-7-yl)-1,3,4-oxadiazole]: at human recombinant HDAC6, the “HDAC6 Selectivity (fold)” value was 386 fold and the IC50 is 130 nM. In addition, at human recombinant HDAC1, the IC50 was above 50000 nM.

On to `O=C(C1CN(C2CCOCC2)C1)N(Cc1cn2ccc(-c3nnc(C(F)F)o3)cc2n1)c1ccccc1` [Compound 4165, N-((7-(5-(difluoromethyl)-1,3,4-oxadiazol-2-yl)imidazo[1,2-a]pyridin-2-yl)methyl)-N-phenyl-1-(tetrahydro-2H-pyran-4-yl) azetidine-3-carboxamide], for which, at human recombinant HDAC6, the “HDAC6 Selectivity (fold)” value came to 121 fold and the IC50 was 413 nM. Further, the IC50 at human recombinant HDAC1 is above 50000 nM.

In the case of `O=C(C1COC1)N1CCN(C(=O)N(Cc2cn3ccc(-c4nnc(C(F)F)o4)cc3n2)c2cccc(F)c2)CC1` [Compound 4103, N-((7-(5-(difluoromethyl)-1,3,4-oxadiazol-2-yl)imidazo[1,2-a]pyridin-2-yl)methyl)-N-(3-fluorophenyl)-4-(oxetan-3-carbonyl)piperazine-1-carboxamide], at human recombinant HDAC6, the “HDAC6 Selectivity (fold)” value came to 249 fold and the IC50 was found to be 201 nM. On human recombinant HDAC1, the IC50 is above 50000 nM.

Turning to `CS(=O)(=O)N1CCC(C(=O)N(Cc2cn3ccc(-c4nnc(C(F)F)o4)cc3n2)c2cccc(F)c2)CC1` [Compound 4153, N-((7-(5-(difluoromethyl)-1,3,4-oxadiazol-2-yl)imidazo[1,2-a]pyridin-2-yl)methyl)-N-(3-fluorophenyl)-1-(methylsulfonyl)piperidine-4-carboxamide], on human recombinant HDAC6, the “HDAC6 Selectivity (fold)” value turned out to be 363 fold and the IC50 is 138 nM. The IC50 on human recombinant HDAC1 is above 50000 nM.

With `CN(C)C(=O)N1CC(C(=O)N(Cc2cn3ccc(-c4nnc(C(F)F)o4)cc3n2)c2ccccc2)C1` [Compound 4175, N3-((7-(5-(difluoromethyl)-1,3,4-oxadiazol-2-yl)imidazo[1,2-a]pyridin-2-yl)methyl)-N1,N1-dimethyl-N3-phenylazetidine-1,3-dicarboxamide], on human recombinant HDAC6, the “HDAC6 Selectivity (fold)” value was 131 fold and the IC50 was 381 nM. Further, the IC50 at human recombinant HDAC1 is above 50000 nM.

As for `O=C(C1CCN(C2CC3(CCC3)C2)CC1)N(Cc1cn2ccc(-c3nnc(C(F)F)o3)cc2n1)c1cccc(F)c1` [Compound 4618, N-((7-(5-(difluoromethyl)-1,3,4-oxadiazol-2-yl)imidazo[1,2-a]pyridin-2-yl)methyl)-N-(3-fluorophenyl)-1-(spiro[3.3]heptan-2-yl)piperidine-4-carboxamide], at human recombinant HDAC6, the “HDAC6 Selectivity (fold)” value is listed as 308 fold and the IC50 worked out at 162 nM. For the same compound, at human recombinant HDAC1, the IC50 was above 50000 nM.

As for `CCC(=O)N1CC(C(=O)N(Cc2cn3ccc(-c4nnc(C(F)F)o4)cc3n2)c2ccccc2)C1` [Compound 4168, N-((7-(5-(difluoromethyl)-1,3,4-oxadiazol-2-yl)imidazo[1,2-a]pyridin-2-yl)methyl)-N-phenyl-1-propionylazetidine-3-carboxamide], at human recombinant HDAC6, the “HDAC6 Selectivity (fold)” value worked out at 125 fold and the IC50 was found to be 400 nM. In addition, at human recombinant HDAC1, the IC50 is above 50000 nM.

As for `O=C(C1CN(c2ncccn2)C1)N(Cc1cn2ccc(-c3nnc(C(F)F)o3)cc2n1)c1cccc(F)c1` [Compound 4207, N-((7-(5-(difluoromethyl)-1,3,4-oxadiazol-2-yl)imidazo[1,2-a]pyridin-2-yl)methyl)-N-(3-fluorophenyl)-1-(pyrimidin-2-yl) azetidine-3-carboxamide], the “HDAC6 Selectivity (fold)” value at human recombinant HDAC6 was 298 fold. The results for the IC50 on human recombinant HDAC6 and at human recombinant HDAC1 were 168 nM and above 50000 nM, respectively.

As to `CS(=O)(=O)N1CCN(C(=O)N(Cc2cn3ccc(-c4nnc(C(F)F)o4)cc3n2)c2cccc(F)c2)CC1` [Compound 4097, N-((7-(5-(difluoromethyl)-1,3,4-oxadiazol-2-yl)imidazo[1,2-a]pyridin-2-yl)methyl)-N-(3-fluorophenyl)-4-(methylsulfonyl)piperazine-1-carboxamide], on human recombinant HDAC6, the “HDAC6 Selectivity (fold)” value stood at 335 fold and the IC50 was found to be 149 nM. Besides, the IC50 at human recombinant HDAC1 is above 50000 nM.

With `CCN1CC(C(=O)N(Cc2cn3ccc(-c4nnc(C(F)F)o4)cc3n2)c2ccccc2)C1` [Compound 4159, N-((7-(5-(difluoromethyl)-1,3,4-oxadiazol-2-yl)imidazo[1,2-a]pyridin-2-yl)methyl)-1-ethyl-N-phenylazetidine-3-carboxamide], on human recombinant HDAC6, the “HDAC6 Selectivity (fold)” value was determined as 118 fold and the IC50 amounted to 425 nM. In addition, the IC50 on human recombinant HDAC1 is above 50000 nM.

`CCC(=O)N1CCN(C(=O)N(Cc2cn3ccc(-c4nnc(C(F)F)o4)cc3n2)c2cccc(F)c2)CC1` [Compound 4093, N-((7-(5-(difluoromethyl)-1,3,4-oxadiazol-2-yl)imidazo[1,2-a]pyridin-2-yl)methyl)-N-(3-fluorophenyl)-4-propionylpiperazine-1-carboxamide]: on human recombinant HDAC6, the “HDAC6 Selectivity (fold)” value stood at 256 fold and the IC50 came to 195 nM. On human recombinant HDAC1, the IC50 is above 50000 nM.

On to `O=C(C1CCN(C2CCCCC2)CC1)N(Cc1cn2ccc(-c3nnc(C(F)F)o3)cc2n1)c1cccc(F)c1` [Compound 4143, 1-cyclohexyl-N-((7-(5-(difluoromethyl)-1,3,4-oxadiazol-2-yl)imidazo[1,2-a]pyridin-2-yl)methyl)-N-(3-fluorophenyl)piperidine-4-carboxamide], for which, on human recombinant HDAC6, the “HDAC6 Selectivity (fold)” value came to 335 fold and the IC50 amounted to 149 nM. In addition, the IC50 on human recombinant HDAC1 was above 50000 nM.

Turning to `O=C(C1CCC1)N1CCN(C(=O)N(Cc2cn3ccc(-c4nnc(C(F)F)o4)cc3n2)c2cccc(F)c2)CC1` [Compound 4095, 4-(cyclobutanecarbonyl)-N-((7-(5-(difluoromethyl)-1,3,4-oxadiazol-2-yl)imidazo[1,2-a]pyridine-2-yl)methyl)-N-(3-fluorophenyl)piperazine-1-carboxamide], the “HDAC6 Selectivity (fold)” value on human recombinant HDAC6 was found to be 185 fold. Besides, the results for the IC50 at human recombinant HDAC6 and at human recombinant HDAC1 were 270 nM and above 50000 nM, respectively.

Turning to `CC(=O)c1ccc(Cc2cn3ccc(-c4nnc(C(F)F)o4)cc3n2)cc1` [Compound 3592, 1-(4-((7-(5-(difluoromethyl)-1,3,4-oxadiazol-2-yl)imidazo[1,2-a]pyridin-2-yl)methyl)phenyl)ethan-1-one], on human recombinant HDAC6, the “HDAC6 Selectivity (fold)” value turned out to be 109 fold and the IC50 was 457 nM. The IC50 on human recombinant HDAC1 was above 50000 nM.

In the case of `CC(=O)c1cccc(OCc2cn3ccc(-c4nnc(C(F)F)o4)cc3n2)c1` [Compound 3721, 1-(3-((7-(5-(difluoromethyl)-1,3,4-oxadiazol-2-yl)imidazo[1,2-a]pyridin-2-yl)methoxy)phenyl)ethan-1-one], at human recombinant HDAC6, the “HDAC6 Selectivity (fold)” value is recorded as 123 fold and the IC50 amounted to 406 nM. For the same compound, the IC50 on human recombinant HDAC1 is above 50000 nM.

`CC(C)N1CCN(C(=O)N(Cc2cn3ccc(-c4nnc(C(F)F)o4)cc3n2)c2ccccc2)CC1` [Compound 4034, N-((7-(5-(difluoromethyl)-1,3,4-oxadiazol-2-yl)imidazo[1,2-a]pyridin-2-yl)methyl)-4-isopropyl-N-phenylpiperazine-1-carboxamide]: on human recombinant HDAC6, the “HDAC6 Selectivity (fold)” value was determined as 485 fold and the IC50 turned out to be 103 nM. For the same compound, on human recombinant HDAC1, the IC50 was above 50000 nM.
